Experimental data reported in publication PMC4876444, “Two-Photon Enzymatic Probes Visualizing Sub-cellular/Deep-brain Caspase Activities in Neurodegenerative Models” (Scientific Reports, 2016).
Where a SMILES comes first, the peptide text is derived from it. The star is where a group is joined. NH(6-Ac-2-naphthyl) = CC(=O)c1ccc2cc(N*)ccc2c1

Key:
caspase-1 = molecular target: T1, caspase-1 (Homo sapiens, UniProt P29466); assay: S/N ratio of caspase-1 probes in BV2 lysates spiked with caspase-1; format: biochemical; settings: probe 6 μM, 25 μg BV2 lysates spiked with caspase-1, 37 °C, 2 h; among the four caspase-1 probes
T1 construct: purchased Merck
T1 sequence (P29466 120-297 limits assumed): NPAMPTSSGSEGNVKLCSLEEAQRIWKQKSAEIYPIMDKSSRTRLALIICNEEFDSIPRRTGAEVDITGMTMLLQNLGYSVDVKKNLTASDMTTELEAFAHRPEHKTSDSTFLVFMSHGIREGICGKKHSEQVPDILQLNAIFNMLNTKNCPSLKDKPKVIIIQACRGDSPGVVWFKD
T1 sequence (P29466 317-404 limits assumed): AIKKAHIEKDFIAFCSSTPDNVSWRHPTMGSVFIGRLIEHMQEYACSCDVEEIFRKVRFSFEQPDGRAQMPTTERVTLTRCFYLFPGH
Description: Figure 2 Photophysical and enzymatic properties of caspase probes. (a) Photophysical and kinetic properties of probes and free dyes. All measurements were taken in 50 mM HEPES, 50 mM NaCl, 0.1% CHAPS, 10 mM EDTA, 5% glycerol, 10 mM DTT, at pH = 7.2. (b) Time-dependent ratiometric fluorescence changes of C1RB (6 μM) incubated with caspase-1 (10 nM) over 2 h at room temperature. Data were obtained by plotting the normalized ratio of fluorescence intensity at 500 nm (F500 nm) over that at 450 nm (F450 nm). (Inset) time-dependent fluorescence emission spectra with λex = 350 nm. (c) Time-dependent “Turn-ON” effect of C1FS (6 μM) incubated with caspase-1 (10 nM) measured and normalized at 460 nm (F460 nm) over 2 h at room temperature, with the corresponding fluorescence emission spectra (inset). λex = 350 nm. (d) Normalized S/N ratio of each of the four caspase-1 probes (6 μM) incubated with 25 μg of BV2 lysates spiked with different concentrations of caspase-1 (37 °C, t = 2 h). S and N represent the fluorescence emission intensity of each reaction solution in the presence (S) and absence (N) of caspase-1. […] (−) no caspase; (caspase-1) 1.5 nM; (caspase-3) 0.8 nM; (caspase-6) 0.2 μM; (caspase-8) 10 nM; (caspase-9) 0.5 μM. […] Normalized, relative fluorescence (RFU) values were obtained after 2-h incubation at room temperature. […]

[1] = system: NIH/3T3, BV2 and HeLa cells; assay: XTT cytotoxicity assay; format: cell-based, mouse, human; settings: XTT assay, 12, 30, 60, 120 μM, 24 h
Description: Supplementary Figure 4. Cytotoxicity of two-photon enzymatic probes (12, 30, 60, 120 μM) in mammalian cells (NIH/3T3, BV2 and HeLa) after incubation for 24 h, as determined by XTT assay. […]
Detection of caspase activities in mammalian cells and tissues
Cell culture. The mouse embryonic fibroblast cell line (NIH/3T3), mouse microglial cell line (BV2) and human epithelial carcinoma cell line (HeLa) used in our experiments were cultured in Dulbecco’s Modified Eagle's Medium (DMEM) supplemented with 10% (for NIH/3T3 and HeLa) or 5% (for BV2) fetal bovine serum (FBS), 100.0 mg/L streptomycin and 100 IU/mL penicillin in a humidified atmosphere of 5% CO2 at 37 °C.
XTT assay. The cytotoxicity of our probes was determined by using the XTT colorimetric cell proliferation kit (Roche) following manufacturer’s guidelines. Briefly, NIH/3T3, BV2 and HeLa cells were seeded in 20~30% confluency (since they will reach >50% confluency within 24 h) into 96-well plates and incubated overnight before the addition of probes with concentrations of 12 μM, 30 μM, 60 μM and 120 μM, respectively. Probes were applied from DMSO stocks whereby DMSO never exceeded 1% in the final solution. The same volume of DMSO was used as a negative control; and the same volume of STS (200 nM) was used as a positive control. After a total treatment time of 24 h, proliferation was assayed using the XTT assay (Supplementary Fig. 4). […]

[2] = not given; remark: listed apart in the source
[3] = not given; remark: listed apart in the source
[4] = system: caspase-1 in primary cortical neurons; assay: TPFM of caspase-1 activation in glucose-deprived primary cortical neurons; format: cell-based, mouse; settings: 50 μM, added 1 h prior to the probe (t = 7 h during GD)
Description: NC: neuron cells incubated in normal neurobasal medium.
All two-photon images were taken on a Leica TCS SP5X Confocal Microscope System. […] Dissociated neuron-enriched cell cultures of cerebral cortex were established from day 16 C57BL/6 mouse embryos, as described[53]. Primary neurons were cultured in the neurobasal medium (Gibco) with 2% B27 and 0.5 mM GlutaMAX. Experiments were performed in 7–9 day-old cultures. For glucose-deprivation studies, glucose-free neurobasal medium was used (with other components fixed). The cultured neurons were incubated in glucose-free medium for 8 h, while control cells were incubated in normal neurobasal medium.
Caspase-1-like activities detected in primary cortical neurons of C57BL/6 mouse underwent
glucose-deprivation (GD) treatment.
neurons grown in normal culture medium and incubated with C1RB/C1FS for 1 h (NC). Panels 2/5: primary neuron
underwent GD induction for 8 h and incubated with C1RB/C1FS for 1 h.
(50 μM) was added 1 h earlier (t = 7 h) than C1RB/C1FS.
TPFM imaging of caspase activities in primary cortical neurons and fresh tissues.
Dissociated neuron-enriched cell cultures of cerebral cortex were established from day 16 C57BL/6 mouse embryos, as described.14 Primary neurons were cultured in the neurobasal medium (Gibco) with 2% B27 and 0.5 mM GlutaMAX. Experiments were performed in 7-9 day-old cultures. […]

Structure (SMILES)	detection limit of caspase-1 activity (caspase-1)	cytotoxicity [1]	λem (emission maximum) [nm]	λex (absorption/excitation maximum) [2] [nm]	δΦ (two-photon action cross-section) [3] [GM]	effect of inhibitor on C1RB/C1FS fluorescence signals in glucose-deprived neurons [4]
CC(=O)N[C@@H](Cc1c[nH]c2ccccc12)C(=O)N[C@@H](CCC(=O)O)C(=O)N[C@@H](Cc1c[nH]cn1)C(=O)N[C@@H](CC(=O)O)C(=O)Nc1ccc2cc(C(C)=O)ccc2c1 [C1RB, Ac-WEHD-AAN] (Ac-WEHD-{NH(6-Ac-2-naphthyl)})	lowest detection limit	minimally cytotoxic	448	316	2.3	
CCO[C@@H]1OC(=O)C[C@@H]1NC(=O)[C@@H]1CCCN2C(=O)CC[C@H](NC(=O)c3nccc4ccccc34)C(=O)N12 [Pralnacasan]						inhibited
